This is an account of results in patent US11285153B2, “Substituted pyrimidine piperazine compound and use thereof” (SUNSHINE LAKE PHARMA CO., LTD., priority 2017, dated 2022).

The target of data set [1] is T1, humanized 5-HT transporter (SERT) (Homo sapiens, UniProt P31645).
T1 construct: expressed in transfected cells; host or cells: CHO cells, membrane homogenate
Briefly: Affinity to humanized 5-HT transporter (SERT), [3H]imipramine binding, transfected CHO cell membranes. The conditions noted are these: 2 nM [3H]imipramine, 22° C., 60 minutes. How it is done: Example A: Evaluation of the Affinity of the Compound of the Invention to Humanized 5-HT Transporter Transfected by CHQ Cells
To a mixture of cell membrane homogenate protein (12 μg), 2 nM [^3H] imipramine, buffer (50 mM Tris-HCl (pH 7.4), 120 mM NaCl, 5 mM KCl, and 0.1% BSA) was added test compound or not under a condition of 22° C. The reaction mixture was incubated for 60 minutes.
To the mixture of the above condition was added 10 μM imipramine to measure the non-specific binding value.
The incubated samples were quickly filtered through a glass fiber membrane (GF/B, Packard) impregnated with 0.3% PEI by a 96-well cell collector (Unifilter, Packard) under vacuum, and repeatedly rinsed with cold 50 mM Tris-HCl and 150 mM NaCl for several times. The filter was dried and the residual radioactivity was calculated in a scintillation counter (Topcount, Packard) by using scintillation fluid (Microscint 0, Packard). The experimental results were expressed as a percentage of inhibition of specific binding of radioligand to the control group.
The standard reference compound was imipramine. The competitive curve was obtained by a series of concentration experiments and the IC50 was calculated.

A further data set concerns the target T2, 5-HT1A receptor (Homo sapiens, UniProt P08908).
T2 construct: host or cells: human HEK-293 cells, membrane homogenate
T2 sequence (P08908 1-422): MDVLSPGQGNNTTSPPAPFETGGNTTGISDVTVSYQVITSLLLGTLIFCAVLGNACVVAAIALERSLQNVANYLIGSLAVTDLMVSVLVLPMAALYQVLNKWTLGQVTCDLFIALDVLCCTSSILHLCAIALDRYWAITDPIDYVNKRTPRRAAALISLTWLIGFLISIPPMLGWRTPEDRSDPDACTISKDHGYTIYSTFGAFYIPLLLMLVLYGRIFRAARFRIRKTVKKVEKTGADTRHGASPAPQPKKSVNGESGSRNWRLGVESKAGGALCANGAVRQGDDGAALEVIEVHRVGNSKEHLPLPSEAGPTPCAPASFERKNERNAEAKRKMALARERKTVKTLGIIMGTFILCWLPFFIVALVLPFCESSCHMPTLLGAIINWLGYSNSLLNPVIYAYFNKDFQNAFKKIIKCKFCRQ
Briefly: h5-HT1A binding affinity test, [3H]8-OH-DPAT, HEK-293 cell membranes. The note with it: 0.3 nM [3H]8-OH-DPAT, 22° C., 60 minutes; from IC50 by ChengPrusoff equation. How it is done: Example B: h5-HT1A Binding Affinity Test
To a mixture of human HEK-293 cell membrane homogenate (36 μg protein), 0.3 nM [^3H]8-OH-DPAT (Perkin-Elmer) and buffer (50 mM Tris-HCl (pH 7.4), 10 mM MgSO4, 0.5 mM EDTA, 2 μg/ml aprotinine) was added test compound or not under a condition of 22° C. The reaction mixture was incubated for 60 minutes.
The standard reference compound was 8-OH-DPAT. To a mixture of the above condition was added 10 μM 8-OH-DPAT to measure the non-specific binding value. A competitive curve was obtained by testing the data of a series of concentrations of 8-OH-DPAT in different experiments.
The incubated samples were quickly filtered through a glass fiber membrane (GF/B, Packard) impregnated with 0.3% PEI by a 96-well cell collector (Unifilter, Packard) under vacuum, and repeatedly rinsed with cold 50 mM Tris-HCl for several times. The filter was dried and the residual radioactivity was calculated in a scintillation counter (Topcount, Packard) by using scintillation fluid (Microscint 0, Packard). The experimental results were expressed as a percentage of inhibition of specific binding of radioligand to the control group.
The binding assay of [^3H]8-OH-DPAT (0.3 nM) to the 5-HT1A receptor in human HEK-293 cells was performed by a scintillation proximity assay of the membrane. The test compound needed to be tested at least three times at a concentration exceeding 6 log, and the data was subjected to nonlinear regression analysis by a Hill equation curve to obtain an IC50 value, which was then calculated by the ChengPrusoff equation to obtain a Ki value.

Data set [2] can be described thus: Pharmacokinetic evaluation in rats after intravenous or intragastric administration. It counts as in vivo. The note with it: SD, rat, plasma. How it is done:
Pharmacokinetics of the compound of the invention in rats, dogs and monkeys were studied and evaluated.
The compound was administered to the tested animals in the form of 5% DMSO+5% Kolliphor HS15+2% (2% HCl)+88% Saline saline solution or 10% DMSO+10% Kolliphor HS15+80% normal saline solution. For the intravenous administration group, the dose was 1 mg/kg, and then the venous blood (0.3 mL) was taken at a time of 0, 0.083, 0.25, 0.5, 1.0, 2.0, 5.0, 7.0, and 24 hours after administration, and centrifuged at 3,000 or 4,000 rpm for 10 minutes. The plasma solution was collected and stored at −20° C. or −70° C. For the intragastric administration group, the dose was 2.5 mg/kg, and then the venous blood (0.3 mL) was taken at a time of 0, 0.083, 0.25, 0.5, 1.0, 2.0, 5.0, 7.0, and 24 hours after administration, and centrifuged at 3,000 or 4,000 rpm for 10 minutes. The plasma solution was collected and stored at −20° C. or −70° C.
The plasma solutions obtained from each of the above groups were subjected to LC/MS/MS analysis.
The LC/MS/MS system for analysis included the Agilent 1200 Series vacuum degasser, binary pump, orifice autosampler, thermostatic column oven, and Agilent G6430A triple quadrupole mass spectrometer with electrospray ionization (ESI) source.
Analysis was performed using a waters XBridge C18 (2.1×50 mm) column. The column was 3.5 μM and injection volume was 5 μL. The analytical conditions were as follows: mobile phase A: water+2 mM ammonium formate+0.1% formic acid mobile phase B: methanol+2 mM ammonium formate+0.1% formic acid. The flow rate was 0.4 mL/min.

The test system of the next data set is mice. Briefly: Forced swimming test of mice, stationary time. It is filed as in vivo, C57BL/6 mice. The note with it: for Stationary time: 3 mg/kg intraperitoneally 30 minutes before the test, last 4 minutes of 6 minutes, Mean ± SEM, vehicle 120.4 ± 16.5. The protocol:
The effects of the compound of the invention on the stationary time in a forced swimming test of mice were evaluated in the present invention.
Animals (C57BL/6 mice) were fed in the animal house barrier system one week earlier to adapt to the rearing environment of animal house. Three days before the trial, each animal was touched 2-3 minutes/day. On the day of the experiment, the animals were transferred to the operating room 60 minutes in advance, and were randomly divided into a vehicle group (20% HP-β-CD+80% H2O), a 40 mg/kg dose group of hydrochloride of Desipramine as the standard reference compound, 1, 3, 10 mg/kg dose groups of the phosphate of the test compound, a 3 mg/kg dose group of the hydrochloride of Vilazone, and a 3 mg/kg dose group of hydrochloride of compound A, a total of 7 groups, the number of animals in each group was 15-16. The vehicle, the standard reference compound of Desipramine, the test compound, Vilazodone or Compound A were intraperitoneally injected 30 minutes before the test. The mice were placed in the experimental apparatus during the test. The experimental apparatus was a cylindrical organic transparent glass tank (23 cm high and 12 cm in diameter). The water level was 8 cm from the bottom and the water temperature was 22±2° C. The length of each test was 6 minutes. There was one animal in each sink, recorded by an Ethovision software and a double-blind manual counting analysis. The stationary time of the last 4 minutes of the animal was recorded. All the experimental results were expressed as mean ±standard error (Mean ±SEM). Prism 6.0 statistical software was used to test and analyze the results. The significance of the difference was P<0.05, and P<0.01 was very significant.

T1 sequence (P31645 whole entry): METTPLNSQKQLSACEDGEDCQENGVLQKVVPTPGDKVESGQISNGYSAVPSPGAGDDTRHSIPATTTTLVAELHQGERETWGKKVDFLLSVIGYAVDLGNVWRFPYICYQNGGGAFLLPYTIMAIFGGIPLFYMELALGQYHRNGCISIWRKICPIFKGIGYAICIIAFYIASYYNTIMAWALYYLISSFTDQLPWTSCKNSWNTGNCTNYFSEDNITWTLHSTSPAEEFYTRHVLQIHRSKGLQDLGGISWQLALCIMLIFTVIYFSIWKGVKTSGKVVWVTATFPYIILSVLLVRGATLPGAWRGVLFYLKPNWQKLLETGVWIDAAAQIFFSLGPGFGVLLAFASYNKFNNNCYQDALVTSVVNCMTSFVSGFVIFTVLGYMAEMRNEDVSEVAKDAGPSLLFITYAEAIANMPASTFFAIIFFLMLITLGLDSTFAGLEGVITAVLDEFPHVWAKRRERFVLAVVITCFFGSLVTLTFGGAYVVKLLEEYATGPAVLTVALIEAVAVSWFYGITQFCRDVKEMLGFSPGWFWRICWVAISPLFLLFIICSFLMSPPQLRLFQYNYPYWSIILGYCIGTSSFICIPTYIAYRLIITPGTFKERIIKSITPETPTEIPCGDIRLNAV

Broadly, the IC50 is the concentration that gives 50% inhibition. A low value points to inhibition by little substance. In general, Ki refers to a dissociation constant, usually derived from enzyme kinetics or from competition with a known ligand. Low values mean tighter binding, high ones weaker binding. In turn, `N#Cc1ccc2[nH]cc(CCCCN3CCN(c4ncc(-c5ccc(C(N)=O)nc5)cn4)CC3)c2c1` [Example 3, 5-(2-(4-(4-(5-cyano-1H-indol-3-yl)butyl)piperazin-1-yl)pyrimidin-5-yl)pyridine-2-carboxamide] had an IC50 in data set [1] of 0.79 nM. Besides, the affinity on 5-HT1A receptor, expressed as Ki, was 2.19 nM.

In data set [1], `CCOC(=O)c1sc(-c2cnc(N3CCN(CCCc4c[nH]c5ccc(C#N)cc45)CC3)nc2)nc1C` [Example 10, ethyl 2-(2-(4-(3-(5-cyano-1H-indol-3-yl)propyl)piperazin-1-yl)pyrimidin-5-yl)-4-methylthiazole-5-formate] had an IC50 of 0.13 nM. Also, the Ki on 5-HT1A receptor came out at 2.16 nM.

A word on the AUC(0-inf): it is total exposure, with the tail of the curve extrapolated. Low values mean less exposure, high ones more exposure. Broadly, the AUC(0-t) is the area under the concentration-time curve up to a stated or last time point. Lower therefore signals less exposure. The Cmax is the peak of the concentration-time curve. For orientation: Tmax means the time from dosing to the highest level. The term clearance denotes the volume of plasma or blood freed of the substance per unit of time. High values mean efficient removal, low ones inefficient removal. In general, half-life refers to the time needed for the level to fall by half in the phase considered. Higher therefore signals slow loss. One may read the bioavailability as the share of a dose that reaches the circulation, judged against a reference dose that is usually intravenous. Higher therefore signals good availability. As to `Cc1nc(-c2cnc(N3CCN(CCCc4c[nH]c5ccc(C#N)cc45)CC3)nc2)sc1C(N)=O` [Example 8, 2-(2-(4-(3-(5-cyano-1H-indol-3-yl)propyl)piperazin-1-yl)pyrimidin-5-yl)-4-methylthiazole-5-formamide], the IC50 in data set [1] came to 0.33 nM. Further, in data set [2] (iv, 1 mg/kg), the AUC(0-inf) is 1820 ng·h/mL, the AUC(0-t) turned out to be 1740 ng·h/mL, the peak level (Cmax) was 1000 ng/mL and the Tmax is 0.083 h. In data set [2] (iv, 1 mg/kg), this molecule had a clearance of 9.22 mL/min/kg and a half-life of 1.72 h. The Vd in data set [2] (iv, 1 mg/kg, read-out: Vss) came out at 1.3 L/kg. In data set [2] (po, 2.5 mg/kg), the AUC(0-inf) is 1550 ng·h/mL, the AUC(0-t) worked out at 1740 ng·h/mL, the concentration peaked (Cmax) at 590 ng/mL and the Tmax amounted to 1 h. For the same molecule, in data set [2] (po, 2.5 mg/kg), the bioavailability worked out at 39.8% and the half-life was 1.58 h. This molecule came in with a Ki at 5-HT1A receptor of 2.14 nM.

With `Cc1nc(-c2cnc(N3CCN(CCCCc4c[nH]c5ccc(C#N)cc45)CC3)nc2)sc1C(N)=O` [Example 7, 2-(2-(4-(4-(5-cyano-1H-indol-3-yl)butyl)piperazin-1-yl)pyrimidin-5-yl)-4-methylthiazole-5-formamide], the concentration for half-maximal inhibition (IC50) in data set [1] amounted to 0.77 nM. Moreover, the affinity on 5-HT1A receptor, expressed as Ki, was 1.01 nM.

For `N#Cc1ccc2[nH]cc(CCCN3CCN(c4ncc(-c5cccc(C(N)=O)n5)cn4)CC3)c2c1` [Example 6, 6-(2-(4-(3-(5-cyano-1H-indol-3-yl)propyl)piperazin-1-yl)pyrimidin-5-yl)pyridine-2-carboxamide], the IC50 in data set [1] came out at 0.23 nM. On 5-HT1A receptor, this molecule displayed an inhibition constant (Ki) of 1.1 nM.

For `N#Cc1ccc2[nH]cc(CCCN3CCN(c4ncc(-c5ccc(C(N)=O)cn5)cn4)CC3)c2c1` [Example 2, 6-(2-(4-(3-(5-cyano-1H-indol-3-yl)propyl)piperazin-1-yl)pyrimidin-5-yl)nicotinamide], the IC50 in data set [1] worked out at 0.45 nM. Further, at 5-HT1A receptor, affinity was put at a Ki of 4.31 nM.

In turn, `N#Cc1ccc2[nH]cc(CCCCN3CCN(c4ncc(-c5ccc(C(N)=O)cn5)cn4)CC3)c2c1` [Example 1, 6-(2-(4-(4-(5-cyano-1H-indol-3-yl)butyl)piperazin-1-yl)pyrimidin-5-yl)nicotinamide] had an IC50 in data set [1] of 0.68 nM. Also, on 5-HT1A receptor, affinity was put at a Ki of 2.13 nM.

In data set [1], `N#Cc1ccc2[nH]cc(CCCN3CCN(c4ncc(-c5ccc(C(N)=O)nc5)cn4)CC3)c2c1` [Example 4, 5-(2-(4-(3-(5-cyano-1H-indol-3-yl)propyl)piperazin-1-yl)pyrimidin-5-yl)pyridine-2-carboxamide] came in with an IC50 of 0.81 nM. This molecule displayed a Ki at 5-HT1A receptor of 4.13 nM.

Regarding `Cc1nc(-c2cnc(N3CCN(CCCc4c[nH]c5ccc(C#N)cc45)CC3)nc2)sc1C(N)=O` [drawing 37], in the data set with mice, the “Stationary time” value amounted to 75.1 ± 13.3 s.

The molecule `N#Cc1ccc2[nH]cc(CCCCN3CCN(c4ncc(-c5cccc(C(N)=O)n5)cn4)CC3)c2c1` [Example 5, 6-(2-(4-(4-(5-cyano-1H-indol-3-yl)butyl)piperazin-1-yl)pyrimidin-5-yl)pyridine-2-carboxamide] registered an IC50 in data set [1] of 0.66 nM. In addition, affinity on 5-HT1A receptor was put at a Ki of 0.53 nM.

For `N#Cc1ccc2[nH]cc(CCCCN3CCN(c4ccc5oc(C(N)=O)cc5c4)CC3)c2c1` [Vilazodone], the “Stationary time” value in the data set on mice turned out to be 107.8 ± 16.1 s. Besides, the “Effect on stationary time compared with the vehicle group” value with mice (forced swimming test, same dose (3 mg/kg)) is reported as “slightly reduce the stationary time of mice, but there is no significant difference”.

Molecule `CCOC(=O)c1sc(-c2cnc(N3CCN(CCCCc4c[nH]c5ccc(C#N)cc45)CC3)nc2)nc1C` [Example 9, ethyl 2-(2-(4-(4-(5-cyano-1H-indol-3-yl)butyl)piperazin-1-yl)pyrimidin-5-yl)-4-methylthiazole-5-formate] came in with an IC50 in data set [1] of 0.45 nM. Also, affinity on 5-HT1A receptor was put at a Ki of 0.99 nM.
